How the values were obtained:
[1] = target: Protein arginine deiminase 4 (PAD4) (Homo sapiens, UniProt Q9UM07); test: PAD4 ammonia release assay; type: biochemical; conditions: for IC50: PAD4 ammonia release assay, BAEE substrate, 60 min at RT, read-out: Average IC50 Abs
Outline: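 PAD4 (20 nM, 2× working solution) was preincubated with compound for 15 min at RT in 100 mM HEPES pH 8.0, 2 mM CaCl2, 50 mM NaCl, 0.1 mM TCEP, BSA at 1.25% DMSO. BAEE (600 μM, 2× mix) reacted 60 min, then OPA/DTT/EDTA detection for 120 min. IC50 came from a 4-parameter fit, normalized to 50 μM reference (100%) and DMSO (0%).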

[2] = system: Citrullinated Histone H3 in dHL-60 cells (differentiated HL-60); test: dHL-60 Cit-H3 ELISA assay; type: cell-based, human; conditions: Homo sapiens, HL-60, 3 h, stimulation with 25 μM A23187 for 3 h, read-out: Average IC50 Abs
Method: Cell culture: HL-60 cells were grown in IMDM+20% FBS+1% PS. The suspension cells were split into 1:5 with fresh media every 2-3 days to maintain cell density between 1×10^5 to 1×10^6 viable cells/mL. HL-60 cells differentiation: HL-60 cells were diluted to 1×10^5 cells/mL and differentiated into neutrophil-like cells with 100 mM DMF treatment for 72 hours in flask at 37° C., 5% CO2. dHL-60 Cells plating: • 1) HL-60 cells were collected, and the plate was centrifuged at 1000 rpm for 5 min. • 2) The HL-60 cells were diluted to 1.25×10^6 cells/mL and plated into a 96-well plate with 80 μL/well (i.e., 1×10^5/well). The plate was then incubated in the incubator (5% CO2, 37° C.) for 30 min to allow cells to adhere. Compound treatment: • 1) Preparation of compound serial dilution (source plate 500×, final DMSO concentration: 0.2%): briefly, compounds were dissolved in 100% DMSO to a concentration of 20 mM (the stock solution) and a 3-fold serial dilution with 8-point doses was performed. • 2) A 10× compound solution was pipetted up and down; and 10 μL/well of compounds were added into each well and incubated for 30 min. Stimulation with 25 μM A23187: • 1) A solution of A23187 (250 μM) in complete IMDM (IMDM+10% FBS+1% PS) containing 150 U/mL S7 Nuclease was prepared. The obtained solution was added 10 μL/well into each well and incubated for 3 h in the incubator (5% CO2, 37° C.). • 2) The dHL-60 cells treated with 10 μL/well complete IMDM without A23187 worked as negative control. Sample preparation: • 1) EDTA (0.5 M, 2 μL/well) were added to all the wells to stop the reaction. • 2) The plate was centrifuged at 1000 rpm for 5 min to collect supernatant. • 3) The supernatant was then diluted at least 1:2 before adding to the ELISA plate for citrullinated H3 analysis.
The standard was reconstituted with 2 mL of Assay buffer to 500 ng/mL. The reconstituted standard was relatively unstable at 4° C. and should be used within 3 hr after reconstitution.
• 1) 100 μL of the standards or diluted samples were added to the wells on the ELISA plate. • 2) The plate was covered with Cover Sheet and incubated for 2 h at room temperaturert on an orbital shaker.
On the day of the assay, the reagent was thawed at room temperaturert. For one plate, 1.2 mL of HRP Conjugate were diluted into 10.8 mL of assay buffer. A diluted HRP Conjugate was prepared shortly before use.
• 1) The wells were empties and rinsed four times with 1× wash buffer with 300 μL/well (Low speed). The plate was inverted between wash steps to empty the plate. After the last wash, the inverted plate was gently tapped on absorbent paper to remove the residual wash buffer. • 2) 100 μL of the HRP Conjugate working solution were added to each well of the plate. • 3) The plate was covered with cover sheet and incubated for 1 h at RT on an orbital shaker.
• 1) The wells were empties and rinsed four times with 1× wash buffer with 300 μL/well (low speed). The plate was inverted between wash steps to empty the plate. […] 100 uL of HRP STOP solution were added to each well of the plate.
• 1) Wipe the bottom of the plate with a clean tissue to remove fingerprints, dirt, etc. • 2) Read the plate at a wavelength of 450 nm.
The percent (%) inhibition at each concentration of compound was calculated based on and relative to the signal in the HPE and ZPE wells contained within each assay plate. The HPE wells worked as […], and the ZPE wells didn't contain any compound but rather DMSO (final concentration=0.1%) as […]. The concentrations and % inhibition values for tested compounds were plotted and the concentration of compound required for 50% inhibition (IC50) was determined with a Four-parameter logistic dose response equation. The endpoint value (IC50) for the reference peptide/compound was evaluated in each experiment as a quality control measure. If the endpoint value is within 3-fold of the expected value then the experiment is deemed acceptable. […]

Sequence of Protein arginine deiminase 4 (PAD4) (Q9UM07 whole entry): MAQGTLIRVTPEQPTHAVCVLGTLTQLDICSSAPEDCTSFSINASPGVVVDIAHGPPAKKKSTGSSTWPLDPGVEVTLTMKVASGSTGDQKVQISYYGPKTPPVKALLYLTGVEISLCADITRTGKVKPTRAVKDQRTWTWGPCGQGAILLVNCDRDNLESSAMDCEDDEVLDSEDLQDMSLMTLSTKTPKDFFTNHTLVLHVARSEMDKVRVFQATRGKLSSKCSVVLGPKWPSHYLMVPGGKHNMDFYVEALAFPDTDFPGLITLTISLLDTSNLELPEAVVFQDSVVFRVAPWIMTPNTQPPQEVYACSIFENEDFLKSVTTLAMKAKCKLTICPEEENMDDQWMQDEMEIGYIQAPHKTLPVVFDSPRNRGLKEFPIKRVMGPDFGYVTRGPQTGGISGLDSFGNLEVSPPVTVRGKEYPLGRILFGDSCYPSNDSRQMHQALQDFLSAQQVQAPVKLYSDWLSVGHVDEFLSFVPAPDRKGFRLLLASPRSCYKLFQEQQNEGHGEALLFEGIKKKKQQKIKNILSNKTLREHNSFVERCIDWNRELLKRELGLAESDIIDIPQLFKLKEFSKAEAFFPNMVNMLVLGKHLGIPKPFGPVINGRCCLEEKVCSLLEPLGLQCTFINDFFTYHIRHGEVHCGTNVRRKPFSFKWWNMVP

Structure (SMILES)	IC50 [1]	IC50 [2]	relative potency of separated isomers in the PAD4 biochemical assay ([1]; SFC-separated stereoisomer pairs)
CCn1cc(Cn2c(-c3cc4cccc5c4n3CCN5CCCO)nc3cc(C(=O)N4C[C@H]5CC[C@@H]4[C@@H]5N)cc(F)c32)cn1 [Example 42, ((1R,4R,7R)-7-amino-2-azabicyclo[2.2.1]heptan-2-yl)(1-((1-ethyl-1H-pyrazol-4-yl)methyl)-7-fluoro-2-(1-(3-hydroxypropyl)-2,3-dihydro-1H-pyrrolo[1,2,3-de]quinoxalin-5-yl)-1H-benzo[d]imidazol-5-yl)methanone]	100 to 500 nM	500 to 5000 nM	–
COc1cc(C(=O)N2C[C@H](N)C[C@@H](F)C2)cc2nc(-c3cc4cccc5c4n3CCN5CCCO)n(Cc3cnn(C)c3)c12 [Example 43, ((3R,5R)-3-amino-5-fluoropiperidin-1-yl)(2-(1-(3-hydroxypropyl)-2,3-dihydro-1H-pyrrolo[1,2,3-de]quinoxalin-5-yl)-7-methoxy-1-((1-methyl-1H-pyrazol-4-yl)methyl)-1H-benzo[d]imidazol-5-yl)methanone]	≤ 100 nM	500 to 5000 nM	–
COc1cc(C(=O)N2CCC[C@@H](N)C2)cc2nc(-c3cc4cccc5c4n3CCN5CCCO)n(Cc3cnn(C)c3)c12 [Example 44, (R)-(3-aminopiperidin-1-yl)(2-(1-(3-hydroxypropyl)-2,3-dihydro-1H-pyrrolo[1,2,3-de]quinoxalin-5-yl)-7-methoxy-1-((1-methyl-1H-pyrazol-4-yl)methyl)-1H-benzo[d]imidazol-5-yl)methanone]	100 to 500 nM	500 to 5000 nM	–
Cn1cc(Cn2c(-c3cc4cccc5c4n3CCN5CCCO)nc3cc(C(=O)N4C[C@@H](N)C[C@H](F)C4)cc(F)c32)cn1 [Example 46, ((3S,5S)-3-amino-5-fluoropiperidin-1-yl)(7-fluoro-2-(1-(3-hydroxypropyl)-2,3-dihydro-1H-pyrrolo[1,2,3-de]quinoxalin-5-yl)-1-((1-methyl-1H-pyrazol-4-yl)methyl)-1H-benzo[d]imidazol-5-yl)methanone]	≤ 100 nM	500 to 5000 nM	–
CCn1cc(Cn2c(-c3cc4cccc5c4n3CCN5CC(F)(F)F)nc3cc(C(=O)N4C[C@H](N)C[C@@H](F)C4)cc(F)c32)cn1 [Example 47, ((3R,5R)-3-amino-5-fluoropiperidin-1-yl)(1-((1-ethyl-1H-pyrazol-4-yl)methyl)-7-fluoro-2-(1-(2,2,2-trifluoroethyl)-2,3-dihydro-1H-pyrrolo[1,2,3-de]quinoxalin-5-yl)-1H-benzo[d]imidazol-5-yl)methanone]	100 to 500 nM	500 to 5000 nM	–
COc1cc(C(=O)N2C[C@H](N)C[C@@H](F)C2)cc2nc(-c3cc4cccc5c4n3CCN5CCCO)n(CC3CCC3)c12 [Example 48, ((3R,5R)-3-amino-5-fluoropiperidin-1-yl)(1-(cyclobutylmethyl)-2-(1-(3-hydroxypropyl)-2,3-dihydro-1H-pyrrolo[1,2,3-de]quinoxalin-5-yl)-7-methoxy-1H-benzo[d]imidazol-5-yl)methanone]	100 to 500 nM	100 to 500 nM	–
C#CCn1c(-c2cc3cccc4c3n2CCN4CCCO)nc2cc(C(=O)N3C[C@H](N)C[C@@H](F)C3)cc(OC)c21 [Example 49, ((3R,5R)-3-amino-5-fluoropiperidin-1-yl)(2-(1-(3-hydroxypropyl)-2,3-dihydro-1H-pyrrolo[1,2,3-de]quinoxalin-5-yl)-7-methoxy-1-(prop-2-yn-1-yl)-1H-benzo[d]imidazol-5-yl)methanone]	100 to 500 nM	500 to 5000 nM	–
COc1cc(C(=O)N2C[C@H](N)C[C@@H](F)C2)cc2nc(-c3cc4cccc5c4n3CCN5CCCO)n(CC3CC(F)(F)C3)c12 [Example 50, ((3R,5R)-3-amino-5-fluoropiperidin-1-yl)(1-((3,3-difluorocyclobutyl)methyl)-2-(1-(3-hydroxypropyl)-2,3-dihydro-1H-pyrrolo[1,2,3-de]quinoxalin-5-yl)-7-methoxy-1H-benzo[d]imidazol-5-yl)methanone]	≤ 100 nM	100 to 500 nM	–
COc1cc(C(=O)N2C[C@H](N)C[C@@H](F)C2)cc2nc(-c3cc4cccc5c4n3CCN5CCCO)n(CC3CC3)c12 [Example 59, ((3R,5R)-3-amino-5-fluoropiperidin-1-yl)(1-(cyclopropylmethyl)-2-(1-(3-hydroxypropyl)-2,3-dihydro-1H-pyrrolo[1,2,3-de]quinoxalin-5-yl)-7-methoxy-1H-benzo[d]imidazol-5-yl)methanone]	≤ 100 nM	500 to 5000 nM	–
COc1cc(C(=O)N2C[C@H](N)C[C@@H](F)C2)cc2nc(-c3cc4cccc5c4n3C(C)CN5CCCO)n(C)c12 (stereo partly drawn) [Example 64, ((3R,5R)-3-amino-5-fluoropiperidin-1-yl)(2-(1-(3-hydroxypropyl)-3-methyl-2,3-dihydro-1H-pyrrolo[1,2,3-de]quinoxalin-5-yl)-7-methoxy-1-methyl-1H-benzo[d]imidazol-5-yl)methanone]	100 to 500 nM	100 to 500 nM	–
CCn1c(-c2cc3cccc4c3n2C(C)CN4CCCO)nc2cc(C(=O)N3C[C@H]4CC[C@@H]3[C@@H]4N)cc(OC)c21 (stereo partly drawn) [Example 68, ((1R,4R,7R)-7-amino-2-azabicyclo[2.2.1]heptan-2-yl)(1-ethyl-2-(1-(3-hydroxypropyl)-3-methyl-2,3-dihydro-1H-pyrrolo[1,2,3-de]quinoxalin-5-yl)-7-methoxy-1H-benzo[d]imidazol-5-yl)methanone]	100 to 500 nM	100 to 500 nM	–
CCC1CN(CCCO)c2cccc3cc(-c4nc5cc(C(=O)N6C[C@H]7CC[C@@H]6[C@@H]7N)cc(F)c5n4C)n1c23 (stereo partly drawn) [Example 69, ((1R,4R,7R)-7-amino-2-azabicyclo[2.2.1]heptan-2-yl)(2-(3-ethyl-1-(3-hydroxypropyl)-2,3-dihydro-1H-pyrrolo[1,2,3-de]quinoxalin-5-yl)-7-fluoro-1-methyl-1H-benzo[d]imidazol-5-yl)methanone]	≤ 100 nM	≤ 100 nM	–
CC[C@H]1CN(CCCO)c2cccc3cc(-c4nc5cc(C(=O)N6C[C@H]7CC[C@@H]6[C@@H]7N)cc(F)c5n4C)n1c23 [Example 71, ((1R,4R,7R)-7-amino-2-azabicyclo[2.2.1]heptan-2-yl)(2-((S)-3-ethyl-1-(3-hydroxypropyl)-2,3-dihydro-1H-pyrrolo[1,2,3-de]quinoxalin-5-yl)-7-fluoro-1-methyl-1H-benzo[d]imidazol-5-yl)methanone]	≤ 100 nM	≤ 100 nM	more potent
CCC1CNc2cccc3cc(-c4nc5cc(C(=O)N6C[C@H]7CC[C@@H]6[C@@H]7N)cc(F)c5n4C)n1c23 (stereo partly drawn) [Example 72, ((1R,4R,7R)-7-amino-2-azabicyclo[2.2.1]heptan-2-yl)(2-(3-ethyl-2,3-dihydro-1H-pyrrolo[1,2,3-de]quinoxalin-5-yl)-7-fluoro-1-methyl-1H-benzo[d]imidazol-5-yl)methanone]	100 to 500 nM	100 to 500 nM	–

Source: US20250136607A1 (REGOR PHARMACEUTICALS, INC., priority 2021, published 2025)
